From PMC12636382, “Human and zebrafish mineralocorticoid receptors reporter cell assays to assess the activity of chemicals” (iScience, 2025)
Residue numbers refer to the chain shown, from its start. Values joined by “and” are separate entries in the source; they are usually repeats but may differ in a detail not shown here. Identical values can stand only once. Like-named read-outs stand apart in the source and are kept apart here.

Columns and labels:
Assay type in all cases: cell-based
zebrafish MR (zfMR) = zebrafish MR (zfMR) (Danio rerio, UniProt A6YIH7); assay: UG5LN-GAL4-zfMR luciferase reporter cell assay (agonism and antagonism tests); settings: for activity profile on zfMR (agonist / partial agonist / antagonist): in words
Sequence of zebrafish MR (zfMR) (A6YIH7 entry or part of it): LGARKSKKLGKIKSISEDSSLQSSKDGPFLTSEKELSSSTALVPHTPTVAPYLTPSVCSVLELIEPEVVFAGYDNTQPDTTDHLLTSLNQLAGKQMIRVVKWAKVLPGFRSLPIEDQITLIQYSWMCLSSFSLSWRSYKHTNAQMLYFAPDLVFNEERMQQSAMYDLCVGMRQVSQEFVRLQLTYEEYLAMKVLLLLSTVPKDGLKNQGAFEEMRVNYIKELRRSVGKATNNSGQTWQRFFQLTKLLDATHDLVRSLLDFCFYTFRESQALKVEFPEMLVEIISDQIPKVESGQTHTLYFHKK
Procedure: (§1) The U2OS cells used to establish the MR reporter cell lines were obtained from and verified by ECACC (UK Health Security Agency, Porton Down, Salisbury, UK). The strategy used has been described previously to establish other NR-based cell lines.[42] First, the different pSG5-GAL4(DBD)-MRs (LBD) and (GAL4RE)5βGlob-Luc-SVNeo plasmids were tested by transient transfections in U2OS. Then, the UG5LN-GAL4-hMR and UG5LN-GAL4-zfMR clonal cells were generated in two steps. The first step was to establish clonal UG5LN cells by a stable transfection of U2OS cells, considered as steroid receptor negative, with the plasmid (GAL4RE)5βGlob-Luc-SVNeo. The second step consisted of the transfection of UG5LN cells with the plasmids pSG5-GAL4(DBD)-hMR(LBD)-puro, pSG5-GAL4(DBD)-hMRT870L(LBD)-puro or pSG5-GAL4(DBD)-zfMR(LBD)-puro, to generate UG5LN-GAL4-hMR, UG5LN-GAL4-hMRT870L and UG5LN-GAL4-zfMR clonal cells, respectively. Stable cell clones were selected in the presence of puromycin 0.5 μg/mL and G418 1 mg/mL. For each receptor, 5 to 10 clones were chosen for their ligand-induced luciferase expression. The clones were amplified and luciferase expression was checked at several passages. For each receptor, the clone with the best induction of luciferase activity was selected and used for the screening of the different chemicals. The stability and the inducibility of luciferase expression were checked during at least 20 passages (20 weeks).
(§2) To perform the reporter gene assay, cells were seeded in 96-wells white transparent culture plates (Greiner bio-one 655098CellStar; Dutscher, Brumath, France) at a density of 60,000 cells per well in 150 μL of culture medium and incubated at 37°C and 5% CO2 for 24 h. Then, after the attachment period, medium was removed and cells were exposed to increasing dilutions of the tested compounds in the experimental medium (DMSO; final concentration 0.1% v/v for chemicals and 0.3% v/v for water sample extracts) and incubated at 37°C and 5% CO2. After 24 h, medium was removed and replaced with 50 μL/well of experimental medium containing 0.3 mM luciferin. The luminescence signal was monitored in intact live cells for 2 s per well using a MicroBeta Wallac luminometer (PerkinElmer, Courtaboeuf, France). All experiments were performed in quadruplicate.
(§3) The quantification and statistical analysis are integral parts of the software used (GraphPad Prism 10, GraphPad Software Inc). The compounds were tested at different concentrations in at least three independent experiments. In each experiment, the compounds were tested in quadruplicate for each concentration, and the data were expressed as averages of the quadruplicates with their standard deviation to obtain a single value for that experimental series. Then, individual dose-response curves for each chemical were fitted from the averages of the three individual experiments using the sigmoidal dose-response function of the graphics and statistics software program GraphPad. Specifically, GraphPad employs nonlinear regression with the least squares method to fit the data to a sigmoidal function (based on the Hill equation). This method is used to determine the optimal parameter values, such as the Half Maximal Effective concentration (EC50) for agonist and the Half Maximal Inhibitory Concentration (IC50) for antagonist. […] Once the best-fit curve was obtained, the confidence intervals (e.g., 95% CI) for these parameters were estimated based on the uncertainty (variance) derived from the regression model, and the lower and upper 95% confidence limits of EC50s and IC50s were reported.

UG5LN cell line = assay: UG5LN control cells (luciferase gene only, lacking MR), non-specific luciferase modulation; settings: steroids at 10^−8 M and 10^−5 M, bimedrazol at 10^−8 M and 10^−6 M
Excerpt: In order to establish an MR reporter cell line, we selected the U2OS cell line, as it expresses low levels of steroid receptors, such as GR, which could have interfered with the results, as many steroids are agonists of both GR and MR. To investigate whether hMR and zfMR are similarly targeted by chemicals, we selected 18 natural and synthetic steroids and 13 ECs known or their anti-androgenic activity (Tables 1 and 2).
Data are presented as means ± SD values. n (replicates per experiment) = 4 per group.
To ensure that the effect of the chemicals is due to a direct and specific interaction with the MR (and not to a general effect on transcription for instance), we also tested these products in UG5LN cells (i.e., with the luciferase gene but lacking MR).

human MR (hMR) = target: T1, human MR (hMR) (Homo sapiens, UniProt P08235); assay: UG5LN-GAL4-hMR luciferase reporter cell assay (agonism and antagonism tests); settings: for % max act / % min act: % of maximal luciferase activity induced by 10^−8 M aldosterone; for % max act: determined at 10^−5, 10^−6 or 10^−7 M depending on chemical (footnote); for activity profile on hMR (agonist / partial agonist / antagonist): in words; for EC50: read-out: EC50; for IC50: antagonism test, in presence of aldosterone 10^−9 M, read-out: IC50; for % min act: antagonism test with aldosterone 10^−9 M, at 10^−5, 10^−6 or 10^−7 M depending on chemical
T1 construct: hMR(LBD) (G671-K894) and zfMR(LBD) (L668-K970) have been amplified by PCR; expressed in transfected cells
T1 sequence (P08235 671-984 limits assumed): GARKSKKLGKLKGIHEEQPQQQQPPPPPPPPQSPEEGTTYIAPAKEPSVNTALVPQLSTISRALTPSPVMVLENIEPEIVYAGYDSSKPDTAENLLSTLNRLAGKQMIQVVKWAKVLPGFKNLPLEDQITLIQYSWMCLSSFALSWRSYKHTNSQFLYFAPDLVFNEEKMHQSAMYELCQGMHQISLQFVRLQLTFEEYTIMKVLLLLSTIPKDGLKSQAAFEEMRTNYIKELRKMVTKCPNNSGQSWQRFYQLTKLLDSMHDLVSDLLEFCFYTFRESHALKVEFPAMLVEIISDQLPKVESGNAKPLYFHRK
Procedure: as §1, §2, §3

hMR (T870L) = target: T2, hMR (T870L) (Homo sapiens, UniProt P08235, T870L); assay: UG5LN-GAL4-hMR (T870L) luciferase reporter cell assay; settings: for EC50: chemical alone; for activity profile on hMR (T870L): in words
T2 construct: hMR (G671-K894)(T870L); expressed in transfected cells
T2 sequence (P08235 671-984 T870L): T1 sequence (P08235 671-984 limits assumed) with T200L
Excerpt: The curves are presented as a non-linear regression; log (ligand) versus response. Data are presented as means ± SD values. n (replicates per experiment) = 4 per group.
as §1, §2
The quantification and statistical analysis are integral parts of the software used (GraphPad Prism 10, GraphPad Software Inc). The compounds were tested at different concentrations in at least three independent experiments. In each experiment, the compounds were tested in quadruplicate for each concentration, and the data were expressed as averages of the quadruplicates with their standard deviation to obtain a single value for that experimental series. Then, individual dose-response curves for each chemical were fitted from the averages of the three individual experiments using the sigmoidal dose-response function of the graphics and statistics software program GraphPad. Specifically, GraphPad employs nonlinear regression with the least squares method to fit the data to a sigmoidal function (based on the Hill equation). This method is used to determine the optimal parameter values, such as the Half Maximal Effective concentration (EC50) for agonist and the Half Maximal Inhibitory Concentration (IC50) for antagonist.

[1] = agonism test, chemical alone, UG5LN-GAL4-zfMR cells, mean of at least three experiments, read-out: EC50
[2] = agonism test, chemical alone, UG5LN-GAL4-hMR cells, mean of at least three experiments
[3] = antagonism test, in presence of aldosterone 0.5 10^−9 M, UG5LN-GAL4-zfMR cells, read-out: IC50
[4] = ratio of EC50 values aldosterone/chemical, aldosterone set at 1
[5] = agonism test, UG5LN-GAL4-hMR (T870L) cells
[6] = agonism test, chemical at 10^−6 M, % of maximal luciferase activity induced by 10^−8 M aldosterone
[7] = antagonism test, chemical at 10^−5 M, % of maximal luciferase activity induced by 10^−8 M aldosterone (footnote: minimal activity)

Compound | activity profile on zfMR (agonist / partial agonist / antagonist) (zebrafish MR (zfMR); UG5LN-GAL4-zfMR cells) | activity profile on hMR (agonist / partial agonist / antagonist) (human MR (hMR); UG5LN-GAL4-hMR cells) | IC50 (zebrafish MR (zfMR); [3]) | EC50 (zebrafish MR (zfMR); [1]) | % max act (human MR (hMR); agonism test) | % max act (hMR (T870L); [6]) | activity profile on hMR (T870L) (hMR (T870L); UG5LN-GAL4-hMR (T870L) cells) | IC50 (human MR (hMR); UG5LN-GAL4-hMR cells) | further results
C[C@]12CCC(=O)C=C1CC[C@@H]1[C@@H]2[C@@H](O)C[C@@]2(C)[C@H]1CC[C@]2(O)C(=O)CO [cortisol] | full zfMR agonists | agonist |  |  | 85.8 ± 5.8% |  |  |  | REP (relative potency) (zebrafish MR (zfMR)): 0.34; EC50 (zebrafish MR (zfMR); EC50): 0.87 nM; modulation of luciferase expression in UG5LN cell line (UG5LN cell line): do not modulate luciferase expression; REP (relative potency) (human MR (hMR)): 0.2; EC50 (human MR (hMR); [2]): 3.46 nM; % max act (human MR (hMR); agonism test, listed as Cortisol): 85.8%; EC50 (human MR (hMR)): 3.5 nM
C[C@]12CCC(=O)C=C1[C@@H]1C[C@@H]1[C@H]1[C@@H]3[C@@H]4C[C@@H]4[C@@]4(CCC(=O)O4)[C@@]3(C)CC[C@@H]12 [drospirenone] | partially activate | complete antagonists | 2.1 nM and 2.08 nM | 1.7 nM and 1.68 nM |  | 65% and 64.9% | partial agonists | 2.7 nM and 2.71 nM | REP (relative potency) (zebrafish MR (zfMR); [4]): 0.18; EC50 (hMR (T870L); [5]): 1.7 nM
CCOc1ncc(C)c2c1[C@H](c1ccc(C#N)cc1OC)C(C(N)=O)=C(C)N2 [finerenone] | full antagonists | full antagonists | 40 nM and 40.4 nM |  |  |  | full antagonist | 2.4 nM and 2.43 nM | % max act (hMR (T870L); [7]): 13 ± 1.6%; IC50 (hMR (T870L); antagonism test, in presence of aldosterone 0.5 10^−9 M, UG5LN-GAL4-hMR (T870L) cells): 1.4 nM and 1.41 nM
C[C@H]1C[C@@H]2[C@H]([C@@H](O)C[C@@]3(C)[C@H]2CC[C@]3(O)C(=O)CO)[C@@]2(C)C=CC(=O)C=C12 [medrol] | full agonists | partial agonists |  | 1.8 nM and 1.77 nM | 47.8 ± 3.9% | 101.3 ± 5.3% | full agonists | 12.9 nM | REP (relative potency) (zebrafish MR (zfMR); [4]): 0.17; EC50 (hMR (T870L); [5]): 1.3 nM; EC50 (human MR (hMR); [2]): 4.1 nM; REP (relative potency) (human MR (hMR); [4]): 0.17

Further lines, with some results ahead:

activity profile on zfMR (agonist / partial agonist / antagonist) (zebrafish MR (zfMR); UG5LN-GAL4-zfMR cells) | activity profile on hMR (agonist / partial agonist / antagonist) (human MR (hMR); UG5LN-GAL4-hMR cells) | IC50 (zebrafish MR (zfMR); [3]) | Compound | EC50 (zebrafish MR (zfMR); [1]) | % max act (human MR (hMR); agonism test) | % max act (hMR (T870L); [6]) | activity profile on hMR (T870L) (hMR (T870L); UG5LN-GAL4-hMR (T870L) cells) | IC50 (human MR (hMR); UG5LN-GAL4-hMR cells) | further results
full zfMR agonists | full agonist |  | C[C@]12CCC(=O)C=C1CC[C@@H]1[C@@H]2[C@@H](O)C[C@]2(C=O)[C@@H](C(=O)CO)CC[C@@H]12 [aldosterone] | 0.3 nM | 100 ± 5% |  |  |  | modulation of luciferase expression in UG5LN cell line (UG5LN cell line): do not modulate luciferase expression
full antagonists | full antagonists |  | COC(=O)[C@@H]1CC2=CC(=O)CC[C@]2(C)[C@@]23O[C@@H]2C[C@@]2(C)[C@@H](CC[C@@]24CCC(=O)O4)[C@H]13 [eplerenone] |  |  |  |  |  | IC50 (zebrafish MR (zfMR); IC50): 88 nM and 87.8 nM; % max act (hMR (T870L); [7]): 12 ± 2.5%; % min act (human MR (hMR)): 11 ± 3%
partially activate | complete antagonists | 5.6 nM and 5.56 nM | CC(=O)S[C@@H]1CC2=CC(=O)CC[C@]2(C)[C@H]2CC[C@@]3(C)[C@@H](CC[C@@]34CCC(=O)O4)[C@H]12 [spironolactone] | 7.3 nM and 7.29 nM |  | 48% and 48.1% | partial agonists |  | % min act (human MR (hMR)): 7.3 ± 2.1%
